# Assay results published in US20220357313A1, “DRUG FINGERPRINTING” (Q-STATE BIOSCIENCES, INC., priority 2021, published 2022).
# Where a name gives a salt, the structure may show the parent alone.
# Tests used:
# [1] = system: KCNQ2 R201C gain-of-function mutant line; test: Drug fingerprint phenotype reversal in KCNQ2 R201C line; format: cell-based; conditions: several concentrations
# Text: (§1) An autoencoder reduces 518 features extracted from Optopatch measurements through an 8-dimensional bottleneck layer (the “embedding”) before attempting to expand back out and reconstruct the initial inputs. The embeddings are information-dense and (because of the preceding depth) reflect high-order representations. The autoencoder may implement a swish activation function between any layers (e.g., between the 518 and 50 dimensional layers, or between the 50 and 25 dimensional layers. Activation functions extend neural networks behavior to non-linear data. Thus the autoencoder is useful for deriving drug fingerprints with representation learning.
# For example, the potassium voltage-gated channel subfamily Q member 2 (KCNQ2) protein and gene are implicated in KCNQ2 encephalopathy, which typically presents with seizures in the first week of life. It is understood that mutation of […] at position 201 in KCNQ2 (R201C) is a gain-of-function mutation that may give rise to KCNQ2 encephalopathy. Using methods of the invention, neurons with and without the R201C mutation may be measured with optopatch and a system such as an autoencoder may create a phenotype. Each phenotype may be plotted in the 8-dimensional space by the autoencoder, which may also plot a drug fingerprint. […]
# [2] = system: iPSC-derived excitatory cortical neurons (NGN2) with loss of function knockout (KO); test: Optopatch action potential features in knockout disease-model iPSC-derived cortical neurons; format: cell-based, human; conditions: for cell behavior projected onto the phenotype/side effect space: KO cells, 8 concentrations from 0.28 to 600 μM, two replicates; for reversal of functional phenotype of disease-model cells (radar plots of action potential features): KO disease-model cells, features normalized to control cells
# Protocol: In this example, iPSC-derived excitatory cortical neurons (NGN2) were grown for 30 days in a culture. The neurons expressed Optopatch proteins as described in Example 1. Two sets of neurons were grown. The first was a wildtype control line. […] The cells were stimulated using blue light as described in Example 1 and their action potentials recorded as voltage traces. Recordings were made of the control cells and disease-model cells when stimulated in the absence of any test compound. Recordings were also made of the disease-model cells when stimulated in the presence of the promiscuous potassium channel blocker 4-AP and the promiscuous sodium channel blocker lamotrigine.
# FIG. 19 provides radar plots showing action potential features extracted from the recorded action potential features when stimulated by blue light. The values for the features are normalized to the control cell recordings. […] The differences in the recorded traces, select features of which are provided on the radar plots, show the functional phenotype of the disease-model in red.
# FIG. 20 is a diagram illustrating phenotype reversal and “side effects” described by mapping extracted action potential features on the ˜300-dimensional space of recorded parameters, only two of which are shown. Extracted features for the control cell (WT) wells (green) are clustered as are those for the KO cells (red). The vector between these populations represents the phenotype (red). Drug effects (blue) are deconstructed into components along (phenotype reversal) and orthogonal to (side effects) the phenotype vector. An ideal drug would undo the effects of the mutation and move the well from the KO cluster to the control cell cluster.
# FIG. 21 is a plot showing many wells projected onto the phenotype/side effect space. WT and KO wells are well separated along the phenotype direction. Application of the two compounds (8 concentrations from 0.28 to 600 μM) from FIG. 25 have increasing effects on KO cell behavior as the concentration increases. […] The connected drug points are in order of increasing concentration, and the two lines are experimental replicates on two consecutive weeks of experiment.
# [3] = system: hiPSC-derived motor neurons; test: Optopatch excitability recording in hiPSC-derived motor neurons, before and after compound addition; format: cell-based, human; conditions: 1 μM ML213; same field of view recorded before and after addition; blue light stimulus
# Text: Human induced pluripotent stem cells (hiPSC) were differentiated into hiPSC-derived motor neurons. The cells expressed an optogenetic proteins from the Optopatch toolkit (optical stimulation plus optical voltage reporting, e.g., CheRiff & QuasAr), which allows simultaneous optical stimulation and recording of neuronal action potentials.
# The channelrhodopsin CheRiff enables action potential stimulation with blue light and the voltage-sensitive fluorescent protein QuasAr enables high-speed electrical recordings with red light. A microscope, as disclosed herein, obtained simultaneous voltage recordings from >100 individual neurons over a large (0.5×4 mm) field of view (FOV) with 1 ms temporal resolution and high signal-to-noise ratio (SNR). A digital micromirror device (DMD) in the microscope projected a fully reconfigurable optical pattern to sequentially stimulate individual cells while recording from many post-synaptic partners. […]
# In every voltage trace the spikes were detected and the key spike shape and timing parameters were computed. […]
# Pixels in the recording that captured fluorescence from the reporters of membrane potential in each neuron co-varied in time following that cell's unique firing pattern. […] Each FOV was recorded twice, before and after addition of potassium channel opener ML213. […]
# [4] = system: E18 rat hippocampal neurons; test: Optopatch spiking behavior of cultured rat hippocampal neurons with compounds; format: cell-based; conditions: for drug-induced changes in neuronal spiking behavior (radar plots): features normalized to control vehicle
# Protocol: E18 rat hippocampal neurons were cultured for 14 days and caused to express Optopatch proteins as described in Example 1. The cells were stimulated in the presence of XE-991 (a Kv7.x blocker), ML-213 (a Kv7.x opener), α-Dendrotoxin (a Kv1.x blocker), OXO-M (a muscarinic agonist), 4AP (a promiscuous Kv blocker), Isradipine (a Cav1.x blocker), or a control vehicle.
# FIG. 22 provides radar plots showing the drug-induced changes in neuronal spiking behavior along many dimensions, which are merely a subset of the action potential features extracted from recordings of the stimulated cells in the presence of one of the listed compounds. The action potential feature values were normalized to those for the cells simulated in the presence of the control vehicle. As shown in the radar plots, each compound provided a discernable and unique effect to the action potential features of the cell.
# E18 rat hippocampal neurons were cultured for 14 days and caused to express Optopatch proteins as described in Example 1. The cells were placed in wells of a 96-well plate. ML-213 at 1 μM was added to alternating columns of the plate and a control vehicle added to the remaining columns. The cells in all wells were stimulated and their action potentials recorded using a microscope as described in Example 1.
# neurons [5] = test: Nearest neighbor matching of 8-dimensional drug fingerprints across the 400 compound library; format: cell-based; conditions: nearest neighbor query across the 400 compound library
# Text: as §1
# Over 400 compounds have been assessed in 10-point concentration response curves (CRCs) in neuronal excitability assays.
# In general, the highest concentrations of the compounds are associated with the largest deviation from control. The action potential traces of FIG. 48 are shown to the autoencoder of FIG. 45, which derives for each compound an 8-dimensional fingerprint such as the two (two replicates of one compound) shown in FIG. 46. […]
# GSK 3787 is a potent and selective peroxisome proliferator-activated receptor δ (PPARδ) antagonist. […] Software may read hundreds (e.g., 512) of features of action potentials fluorescently shown in the movies. […]
# neurons [6] = test: Drug fingerprint activity detector in the 400 compound screen; format: cell-based; conditions: Retigabine positive CTL wells
# Text: To address this challenge, the invention provides a neuronal fingerprinting-based activity detector. In embodiments, the method calculates the fingerprints for each sample, then determines which fingerprints lie inside the “cloud of inertness” defined by the high-n replication of control wells. Samples that give a very low probability of being inert are then labeled as active. This technique is enabled by two assets: 1) a fitted fingerprinting algorithm, such as is described above, with which to find fingerprints and 2) control samples to populate the “cloud of inertness” at the center of the fingerprint space. The determination of the probability of inertness can be made using several computationally inexpensive techniques, including multivariate gaussian distributions and nonparametric kernel density estimation.
# FIG. 59 illustrates a drug fingerprint as an activity detector, which could be used for inertness identifier as well. […] Bioactivity of compounds across varying concentrations can be automatically detected in the trained drug space. […] Throughout the 400 compound screen, activity was detected for 99.8% of the Retigabine positive CTL wells and 25.1% of experimental wells (403 compounds across 10 concentrations). For compounds where activity was detected, activity was detected for 49.5% of the wells with the highest third of doses and for 61% of the highest doses. […]
SMILES,cell behavior projected onto the phenotype/side effect space [2],reversal of functional phenotype of disease-model cells (radar plots of action potential features) [2],drug-induced changes in neuronal spiking behavior (radar plots) [4],other results
O=C1N(c2ccccc2)c2ccccc2C1(Cc1ccncc1)Cc1ccncc1 [Linopirdine hydrochloride],,,,reversal of KCNQ2 R201C gain-of-function phenotype in 8-dimensional drug fingerprint space [1]: reverses the disease phenotype
Nc1ccncc1 [4-AP],moves cell behavior toward and beyond WT behavior,substantially reversed the phenotype,,
Cc1cc(C)c(NC(=O)C2CC3CCC2C3)c(C)c1 (centres unmarked) [ML213],,,"drove cellular response, as expected","neuronal excitability [3]: clear reduction in neuronal excitability; average firing rate during the blue light stimulus ramp ([4]; ML-213 at 1 μM versus vehicle, 96-well plate): dramatically reduces firing rate; drug fingerprint similarity to query compound ICA-27243 (neurons [5]): highly similar drug fingerprints"
Nc1nnc(-c2cccc(Cl)c2Cl)c(N)n1 [lamotrigine],moves behavior away from both WT and KO,perturbed behavior but did not reverse the phenotype,,
O=C1c2ccccc2C(Cc2ccncc2)(Cc2ccncc2)c2ccccc21 [XE-991],,,"drove cellular response, as expected",
CCOC(=O)Nc1ccc(NCc2ccc(F)cc2)cc1N [Retigabine],,,,wells in which activity was detected (neurons [6]): 99.8%
